In ChEMBL document CHEMBL1122462, “Potential antiatherosclerotic agents. 4. [(Functionalized-alkyl)amino]benzoic acid analogues of cetaben” (1983):
“And” between values parts separate entries of the source, which are not always exact repeats. Equal values may be shown once.

Legend:
[1] = biological target: T1, Sterol O-acyltransferase 1 (Rattus norvegicus) (UniProt O70536); experiment: In vitro inhibitory activity against acyl coenzyme A:cholesterol acyltransferase; parameters: concentration or dose not given beside the values; details: concentration not given here
T1 sequence (whole entry): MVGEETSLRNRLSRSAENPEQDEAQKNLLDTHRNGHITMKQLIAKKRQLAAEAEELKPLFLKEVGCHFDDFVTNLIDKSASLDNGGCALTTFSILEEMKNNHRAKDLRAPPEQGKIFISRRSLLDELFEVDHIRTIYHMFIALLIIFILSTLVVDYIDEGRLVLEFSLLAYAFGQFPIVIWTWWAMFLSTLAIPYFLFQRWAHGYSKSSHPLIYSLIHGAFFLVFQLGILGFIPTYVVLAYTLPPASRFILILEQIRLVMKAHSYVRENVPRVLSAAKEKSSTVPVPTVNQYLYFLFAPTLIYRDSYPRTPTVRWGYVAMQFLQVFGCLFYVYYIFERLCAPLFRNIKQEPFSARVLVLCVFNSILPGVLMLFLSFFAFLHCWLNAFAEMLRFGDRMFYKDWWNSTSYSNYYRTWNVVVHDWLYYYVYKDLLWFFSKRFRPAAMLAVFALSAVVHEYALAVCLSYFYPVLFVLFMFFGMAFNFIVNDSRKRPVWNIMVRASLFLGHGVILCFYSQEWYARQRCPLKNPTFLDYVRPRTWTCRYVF

[2] = test system: Rattus norvegicus; experiment: In vivo Triglyceride lowering activity at a dose of 0.10 % of the diet; format: functional
[3] = test system: Rattus norvegicus; experiment: In vivo sterol lowering activity at dose of 0.10 % of the diet; format: functional
[4] = test system: Rattus norvegicus; experiment: In vivo sterol lowering activity, dosed as 0.03 % of the diet; format: functional
[5] = test system: Rattus norvegicus; experiment: In vivo Triglyceride lowering activity at dose as 0.01 % of the diet; format: functional
[6] = test system: Rattus norvegicus; experiment: In vivo Triglyceride lowering activity at dose as 0.03 % of the diet; format: functional
[7] = test system: Rattus norvegicus; experiment: In vivo Sterol lowering activity at dose as 0.01% of the diet; format: functional

| inhibition [1] | SMILES | serum triglyceride level (% of control) [2] [%] | serum sterol level, % of control [3] [%] | serum sterol level, percent of control [4] [%] | serum triglyceride level (% of control) [5] [%] | triglyceride lowering activity [6] [%] | serum sterol level, percent of control [7] [%] |
| --- | --- | --- | --- | --- | --- | --- | --- |
| < 60% | CCOC(=O)c1ccc(NCCCCCCCCCCCO)cc1 | 93 | 94 |  |  |  |  |
| < 51% | CCCCCCCCCCC(O)CCCCCNc1ccc(C(=O)OCC)cc1 (configuration not stated) | <39 | 93 |  |  |  |  |
| < 74% | CC(C)(C)CCCCCCCCCCCCCCNc1ccc(C(=O)O)cc1 [listing 1 of 2 here] |  |  |  |  |  |  |
| 0% | O=C(O)c1ccc(N2CCCC2=O)cc1 |  |  |  |  |  |  |
| 7% and < 32% | CCCCCCCCCCCCCCCCN(CS(=O)(=O)O)c1ccc(C(=O)O)cc1 |  |  |  |  |  |  |
| < 56% | CCCCSCCCCCCCCCCC(=O)Nc1ccc(C(=O)OC)cc1 | 81 | 92 |  |  |  |  |
| < 68% | CCOC(=O)c1ccc(NCCCCCCCCCCCNc2ccc(C(=O)OCC)cc2)cc1 | 67 | 92 |  |  |  |  |
| < 71% | CCOC(=O)c1ccc(N(CCCCCCCCCCCBr)C(=O)OCc2ccccc2)cc1 | 91 | 100 |  |  |  |  |
|  | CCCCCCCCCCCCCCCC(=O)Nc1ccc(C(=O)OCC)cc1 |  | 91 |  |  |  |  |
| 7% | CCOC(=O)c1ccc(NCCCCCCCCCCNc2ccc(C(=O)OCC)cc2)cc1 | 98 | 140 |  |  |  |  |
| < 63% | COC(=O)c1ccc(NC(=O)CCCCCCCCCCOc2ccc(C(=O)OC)cc2)cc1 | 118 | 94 |  |  |  |  |
| 2% | CCOC(=O)c1ccc(NCCCCCCCCCCCCNc2ccc(C(=O)OCC)cc2)cc1 | <68 | 103 |  |  |  |  |
|  | CCCCCCCCCCCCCCCCN(CS(=O)(=O)[O-])c1ccc(C(=O)O)cc1.[Na+] | <49 | <72 | <87 | 79 | <57 | 91 |
| 12% | CCOC(=O)c1ccc(NCCCCCCCCCCCC2CCCCC2)cc1 | <50 | 80 |  |  |  |  |
|  | O=C([O-])c1ccc(NCCCCCCCCCCCCCCCC(F)(F)F)cc1.[Na+] | <21 | <34 | <62 | <63 | <39 | <75 |
| < 91% | Br.CCOC(=O)c1ccc(NC(=O)CCCCCCCCCCSC(=N)N)cc1 | 96 | 92 |  |  |  |  |
| < 59% | CCCCCCCCCCC(C)(O)CCCCCNc1ccc(C(=O)OCC)cc1 (configuration not stated) | <28 | <82 |  |  |  |  |
|  | CC(C)(C)CCCCCCCCCCCCCCNc1ccc(C(=O)[O-])cc1.[Na+] | <30 | <44 | <53 | <66 | <55 | <72 |
| 0% and 9% | O=C(O)CCCCCCCCCCCCCCCNc1ccc(C(=O)O)cc1 [listing 1 of 2 here] |  |  |  |  |  |  |
|  | CCCCCCCCCCCCCCCCN(CS(=O)(=O)[O-])c1ccc(C(=O)[O-])cc1.[Na+].[Na+] | 89 | <75 | 91 | 77 | 95 | 89 |
|  | O=C(O)CCCCCCCCCCCCCCCNc1ccc(C(=O)O)cc1 [listing 2 of 2 here] | 96 | 92 | 92 | 124 | 90 | 101 |
|  | C[Si](C)(C)CCCNc1ccc(C(=O)[O-])cc1.[Na+] | <77 | <64 | <82 | 102 | 85 | 87 |
|  | O=C([O-])CCCCCCCCCCCCCCCNc1ccc(C(=O)[O-])cc1.[Na+].[Na+] | 132 | 106 | 102 | 93 | 97 | 102 |

| inhibition [1] | SMILES | serum triglyceride level (% of control) [2] [%] | serum sterol level, % of control [3] [%] | serum sterol level, percent of control [4] [%] | serum triglyceride level (% of control) [5] [%] | triglyceride lowering activity [6] [%] | serum sterol level, percent of control [7] [%] |
| --- | --- | --- | --- | --- | --- | --- | --- |
| 8% | CCOC(=O)c1ccc(NCCCCCCCCCCCCCCCCS)cc1 | <51 | 90 |  |  |  |  |
|  | CC(C)(C)CCCCCCCCCCCCCCNc1ccc(C(=O)O)cc1 [listing 2 of 2 here] | <20 | <48 | <53 | <59 | <42 | <69 |
|  | C[Si](C)(C)CCCCCCCCCCCNc1ccc(C(=O)[O-])cc1.[Na+] | <46 | <48 | <73 | 122 | 88 | <81 |
| 8% | O=C(O)c1ccc(NCCCCCCCCCCNc2ccc(C(=O)O)cc2)cc1 | 100 | 93 |  |  |  |  |
| < 60% | C[Si](C)(C)CCCCCCCCCCCCCCNc1ccc(C(=O)O)cc1 |  |  |  |  |  |  |
|  | CCCCCCCCCC/C(CCCCCNc1ccc(C(=O)O)cc1)=N/O | <31 | <75 | <84 | <52 | <30 | 86 |
|  | C[Si](C)(C)CCCCCCCCCCCNc1ccc(C(=O)O)cc1 [listing 1 of 2 here] | <25 | <44 | <69 | <67 | <54 | <79 |
| < 52% | CCOC(=O)c1ccc(NCCCCCCCCCCCOc2ccc(C(=O)OC)cc2)cc1 | <72 | 100 |  |  |  |  |
|  | CCCCCCCCCCC(O)CCCCCNc1ccc(C(=O)O)cc1 (configuration not stated) | <31 | <86 | 96 | <66 | <43 | 104 |
| < 56% | C[Si](C)(C)CCCCCCCCCCCNc1ccc(C(=O)O)cc1 [listing 2 of 2 here] |  |  |  |  |  |  |
| < 62% | CCCCOCCCCCCCCCCCNc1ccc(C(=O)O)cc1 | <44 | 91 |  | 74 |  | <86 |
| < 23% and 12% | C[Si](C)(C)CCCNc1ccc(C(=O)O)cc1 |  |  |  |  |  |  |
| < 71% | CCOC(=O)c1ccc(NC(=O)CCCCCCCCCCBr)cc1 | 100 | 115 |  |  |  |  |
| < 26% | CCCCCCCCCCC(CCCCCNc1ccc(C(=O)OCC)cc1)SC(C)=O (configuration not stated) | <46 | 94 |  |  |  |  |
| < 22% | COCCCCCCCCCCCCCCCCN(C(C)=O)c1ccc(C(=O)O)cc1 | 93 | 100 |  |  |  |  |
| < 10% | CCOC(=O)c1ccc(NCCCCCCCCCCCCCCCCSCC)cc1 | <58 | <89 |  |  |  |  |
| < 45% | CCOC(=O)c1ccc(NCCCCCCCCCCCSc2ccc(C(=O)OCC)cc2)cc1 | 132 | 102 |  |  |  |  |
| < 79% | CCCCCCCCCCC(S)CCCCCNc1ccc(C(=O)O)cc1 (configuration not stated) | <43 | 84 |  |  |  |  |
| 0% | CCOC(=O)c1ccc(NC(=O)C(F)(F)C(F)(F)C(F)(F)C(F)(F)C(F)(F)C(F)(F)C(F)(F)F)cc1 |  | <69 | <73 | <61 | <43 | <68 |
| < 29% | O=C(O)c1ccc(NCCCCCCCCCCCSc2ccc(C(=O)O)cc2)cc1 | 78 | 98 | 104 |  | 92 |  |
| < 60% | O=C(O)c1ccc(NCCCCCCCCCCCCNc2ccc(C(=O)O)cc2)cc1 | 89 | 103 |  |  |  |  |
| < 53% | CCCCCCCCCCC(C)(O)CCCCCNc1ccc(C(=O)O)cc1 (configuration not stated) | <37 | <73 |  |  |  |  |
